SMILES strings stand for the structures.

Data set [1] relates to HT29 tumor cells. In words: Assay of in vitro cell proliferation inhibition (CellTiterGlo). The data set is classed as cell-based. To be noted: Homo sapiens, HT-29. How it is done:
Assay Example 2. Assay of In Vitro Cell Proliferation Inhibition
The ability of compounds to inhibit the proliferation of HT29 tumor cells was measured.
The assay compound was dissolved in 100% DMSO to prepare 10 mM stock solution.
• 1) UV light of a biological safety cabin was turned on, and 30 minutes were counted down; • 2) In a 37° C. water bath, RPMI1640 medium and trypsin were preheated; • 3) After completion of the UV irradiation, the biological safety cabin was opened. • The preheated medium, trypsin and phosphate buffered saline (PBS), etc. were wiped with alcohol and placed in the biological safety cabin; • 4) HT29 cells were removed from the incubator, and the old medium was removed in biological safety cabin. 10 ml of PBS was added. The mixture was shaken gently, and then PBS was removed; • 5) 1.5 ml of preheated 0.25% trypsin was added. The culture vessel was shaken horizontally so that the trypsin evenly covered the cells at the bottom, and placed in an incubator for 2 minutes; • 6) Cell digestion was stopped with complete medium, and the cell suspension was pipetted to homogeneity and counted; • 7) According to the result of cell counting, the density of cell suspension was adjusted to 1500 cells per well, and the cell suspension was seeded at 50 μl per well; • 8) The stock solution of compounds was serially diluted in DMSO solution, and compounds were added to cell plate using Tecan; • 9) The compound-added cell plate and CellTiterGlo were equilibrated at room temperature, and 25 microliters of CellTiterGlo was then added to each well. The cell plate was shaken for 1-2 minutes and then allowed to stand for 10 minutes. The signal value was then detected. The data were analyzed using XL-Fit, and the IC50 of each compound was calculated. 4.
(In general: Cellular ATP, detected with luciferase, serves as a proxy for viable cell number.)

The target in data set [2] is ERK2 kinase (Homo sapiens (Human), UniProt P28482). In words: Assay of in vitro kinase activity (33P-ATP filter-binding, MBP substrate). The data set is classed as biochemical. To be noted: remaining kinase activity vs DMSO control. How it is done: Assay Example 1. Assay of In Vitro Kinase Activity
The ability of compounds to inhibit ERK2 kinase activity was measured.
20 mM Hepes (pH 7.5), 10 mM MgCl2, 1 mM ethylenebis(oxyethylenenitrilo)tetraacetic acid (EGTA), 0.02% Brij35, 0.02 mg/mL bovine serum albumin (BSA), 0.1 mM Na3VO4, 2 mM dithiothreitol (DTT), 1% DMSO.
The assay compound was dissolved in 100% DMSO to prepare a stock solution of specific concentration. The compound was serially diluted in DMSO solution using Integra Viaflo Assist smart pipette.
• 1) The substrate MBP was prepared in freshly prepared reaction buffer; • 2) ERK2 kinase was added to the above-mentioned MBP solution and mixed gently; • 3) The compound dissolved in 100% DMSO was added to the kinase reaction system using ultrasound technology (Echo550; nanoliter range), and the mixture was incubated at room temperature for 20 minutes; • 4)^33P-ATP (specific concentration of […]) was added to the reaction system, and the reaction was started at this time; • 5) The mixture was incubated at room temperature for 2 hours; • 6) The amount of radioactivity was detected by filter-binding method; • 7) ERK2 kinase activity was calculated as the ratio of the remaining kinase activity in the assay sample to the kinase activity of the control group (treated by DMSO). Curve was fitted using Prism (GraphPad software) and IC50 values were calculated. 5.

The nature of data set [3]: In vivo DMPK assay in mouse. To be noted: female BALB/c mice; for Oral DNAUC (AUCPO/Dose) / bioavailability / Cmax: 3 mg/kg orally; for clearance / Vd / bioavailability / half-life / Cmax: mouse, plasma; for clearance / Vd: iv; for clearance / Vd / bioavailability: 1 mg/kg intravenously; for clearance: read-out: Cl (clearance rate); for Vd: read-out: Vdss (distribution volume); for bioavailability / Cmax: po; for bioavailability: read-out: F % (oral bioavailability); for half-life: single administration, read-out: T1/2 (half-life) (converted); for Cmax: read-out: Cmax (maximum concentration). An excerpt:
Assay Example 3. Assay of In Vivo DMPK
In vivo DMPK assay in mouse
Female BALB/c mice were used as assay animals to determine the blood concentration of compounds and evaluate the pharmacokinetic behavior after a single administration.
Eight healthy adult female BALB/c mice were selected, wherein 4 mice were in the intravenous injection group and 4 mice were in the oral group. The vehicle in the intravenous injection group was 5% DMSO+95% (20% HP-β-CD). The compound to be assayed was mixed with an appropriate amount of vehicle for intravenous injection, vortexed and sonicated to prepare a clear solution of 0.5 mg/mL. The clear solution was filtered by a microporous membrane, and then ready for use. The vehicle in the oral group was 5% DMSO+95% (20% HP-β-CD). The compound to be assayed was mixed with the vehicle, vortexed and sonicated to prepare a solution of 0.3 mg/mL. Mice were administered 1 mg/kg intravenously or 3 mg/kg orally, and then whole blood was collected for a certain period. Plasma was prepared. The drug concentration was analyzed by LC-MS/MS method, and the pharmacokinetic parameters were calculated by Phoenix WinNonlin software (Pharsight, USA).
Note: DMSO: dimethyl sulfoxide; HP-β-CD: hydroxypropyl-β-cyclodextrin.

Data set [4] relates to human non-small cell lung cancer H358 cells. Kind of data set: In vivo efficacy in mouse H358 subcutaneous xenograft model. As to conditions: BALB/c nude mouse, 30 mg/kg PO QD. How it is done: Animals were monitored daily for health and death. […] Animal deaths and side effects in each group were recorded based on the number of animals in each group. […] 5.

Sequence of ERK2 kinase (P28482 whole entry): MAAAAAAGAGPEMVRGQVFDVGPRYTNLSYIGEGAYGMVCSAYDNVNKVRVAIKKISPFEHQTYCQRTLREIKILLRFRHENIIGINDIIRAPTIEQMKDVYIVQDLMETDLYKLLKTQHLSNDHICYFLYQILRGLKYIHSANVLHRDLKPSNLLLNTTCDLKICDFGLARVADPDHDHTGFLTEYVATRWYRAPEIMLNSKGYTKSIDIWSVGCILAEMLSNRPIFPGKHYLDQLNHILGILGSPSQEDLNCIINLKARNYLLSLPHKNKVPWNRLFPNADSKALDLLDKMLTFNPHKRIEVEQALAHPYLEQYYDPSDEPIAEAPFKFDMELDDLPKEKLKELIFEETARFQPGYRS

The term IC50 denotes the concentration that inhibits the measured activity by half. One may read the clearance as a measure of how efficiently the substance is removed, as volume per time. For orientation: bioavailability means the share of a dose that reaches the circulation, judged against a reference dose that is usually intravenous. Regarding `Cn1nccc1Nc1nccc(-c2nc3c(s2)C(C)(C)N(Cc2cccc(Cl)c2)C3=O)n1` [WX001], in data set [1], half-maximal inhibition (IC50) was put at 14 nM. The compound also had a half-inhibitory concentration (IC50) in data set [2] of 0.24 nM. Also, in data set [3], the “Oral DNAUC (AUCPO/Dose)” value is listed as 2153 nM · h/mpk, the clearance amounted to 14.3 mL/min/kg, the Vd came to 1.1 L/kg and the bioavailability stood at 86%. Further, in data set [3], the half-life was 0.9 h and the Cmax stood at 3360 nM.

As to `Cn1nccc1Nc1nccc(-c2nc3c(s2)C(C)(C)N(Cc2cccc(F)c2)C3=O)n1` [WX002], the IC50 in data set [1] amounted to 24 nM; in data set [2], 0.35 nM.

`Cn1nccc1Nc1nccc(-c2nc3c(s2)C(C)(C)N(Cc2ccc(F)c(F)c2)C3=O)n1` [WX003]: the results for the IC50 in data set [1] and in data set [2] were 27 nM and 0.37 nM, respectively.

Take `CC1(C)c2sc(-c3ccnc(NC4CCOCC4)n3)nc2C(=O)N1Cc1cccc(F)c1` [WX004]: the IC50 is 35 nM in data set [1] and 0.25 nM in data set [2].

For the compound `Cc1cnc(Nc2ccnn2C)nc1-c1nc2c(s1)C(C)(C)N(Cc1cccc(Cl)c1)C2=O` [WX005], the IC50 in data set [1] stood at 8 nM. This compound registered an IC50 in data set [2] of 0.05 nM. Further, in data set [3], the “Oral DNAUC (AUCPO/Dose)” value turned out to be 468 nM · h/mpk and the Cmax was 1030 nM.

`Cc1cnc(Nc2ccnn2C)nc1-c1nc2c(s1)C(C)(C)N(Cc1cccc(F)c1)C2=O` [WX006] registered a concentration for half-maximal inhibition (IC50) in data set [1] of 7 nM. Further, the IC50 in data set [2] turned out to be 0.3 nM. Moreover, in data set [3], the “Oral DNAUC (AUCPO/Dose)” value was 530 nM · h/mpk, the clearance was determined as 23 mL/min/kg, the Vd is 1.7 L/kg and the bioavailability was 34%. In data set [3], the half-life is 1 h and the Cmax came to 1040 nM. Besides, in data set [4] (to the 28th day), the “body weight of assay animals” value is on record as “did not decrease significantly” and the morbidity or death result is reported as “no morbidity or death”. Further, the “TGI (inhibition rate of tumor growth)” value in data set [4] (H358 xenograft, 28th day) amounted to 94%.

`CC1(C)c2sc(-c3ccnc(NC4CCOCC4)n3)nc2C(=O)N1Cc1cccc(Cl)c1` [WX007]: the IC50 in data set [1] was 26 nM; in data set [2], 0.39 nM.

`Cc1cnc(Nc2ccnn2C(F)F)nc1-c1nc2c(s1)C(C)(C)N(Cc1cccc(F)c1)C2=O` [WX008]: the IC50 in data set [1] is 58 nM; in data set [2], 0.52 nM.

On to `[2H]C([2H])([2H])n1nccc1Nc1ncc(C)c(-c2nc3c(s2)C(C)(C)N(Cc2cccc(F)c2)C3=O)n1` [WX009], for which the midpoint of inhibition in data set [1], the IC50, lay at 6 nM. Also, the IC50 in data set [2] is 0.64 nM. For the same compound, in data set [3], the “Oral DNAUC (AUCPO/Dose)” value amounted to 820 nM · h/mpk, the clearance stood at 28 mL/min/kg, the Vd was found to be 1.7 L/kg and the bioavailability was 67%. In data set [3], the half-life was 1.7 h and the Cmax was determined as 1170 nM.

Turning to `Cc1cc(Nc2ncc(C)c(-c3nc4c(s3)C(C)(C)N(Cc3cccc(F)c3)C4=O)n2)n(C)n1` [WX010], the figures for the IC50 in data set [1] and in data set [2] were 27 nM and 0.14 nM, respectively.

`COCCn1nccc1Nc1ncc(C)c(-c2nc3c(s2)C(C)(C)N(Cc2cccc(F)c2)C3=O)n1` [WX011]: the IC50 in data set [1] came to 26 nM; in data set [2], 0.98 nM.

For the compound `Cc1cnc(Nc2ccnn2C2CC2)nc1-c1nc2c(s1)C(C)(C)N(Cc1cccc(F)c1)C2=O` [WX012], the IC50 amounted to 37 nM in data set [1] and 0.48 nM in data set [2].

For the compound `COc1cc(Nc2ncc(C)c(-c3nc4c(s3)C(C)(C)N(Cc3cccc(F)c3)C4=O)n2)n(C)n1` [WX013], the IC50 in data set [1] stood at 18 nM; in data set [2], 0.19 nM.
